# Data reported in patent US20230371510A1, “APPLICATION OF PYRROLE-2-CARB[…] CONTROLLING PLANT ROOT-KNOT NEMATODES” (Yunnan University, priority 2022, published 2023).
# Read-outs that look alike come from different tables or passages of the source.
# Key:
# Format in all cases: in vivo
# Meloidogyne hapla = assay: Nematicidal (insecticidal) mortality assay in well plate; settings: 48 h
# Experimental: (§1) 0.5 mg-1.5 mg of pyrrole-2-carboxaldehyde was dissolved in methanol and diluted with sterile distilled water as the test liquid. The dilution concentrations of each liquid medicine were 12.5 μg/ml, 25 μg/ml, 50 μg/ml, 100 μg/ml, 200 μg/ml and 400 μg/ml respectively, and the mass concentration of methanol in each liquid medicine was 5%. Water containing 5% methanol was used as a blank control.
# (§2) In addition, root-knot nematodes such as Meloidogyne hapla, Meloidogyne javanica and Meloidogyne arenaria were also prepared for testing.
# (§3) 200 μl of the above test liquid was added to a 20-well plate with 100-150 live nematodes and placed at 25° C. Subsequently, the nematodes were examined under an optical microscope at 12 h, 24 h and 48 h, respectively, to calculate the mortality. Method for identification of mortality: 1-5 drops of 5% NaCl solution were added to the wells of the treatment plate and observed after 2 minutes; Dead nematodes were stiff and unresponsive to stimulation with a needle, while surviving nematodes were curled or wriggled.
# (§4) The whole experiment was repeated three times with the test liquid without samples as the control, and the average value was taken three times to calculate the corrected mortality.
# (§5) Mortality %=(number of dead nematodes/(number of dead nematodes+number of surviving nematodes))×100%
# (§6) Corrected mortality %=sample mortality−control mortality
# Meloidogyne javanica = assay: as above; settings: 48 h
# Experimental: as §1, §2, §3, §4, §5, §6
# Meloidogyne arenaria = assay: as above; settings: 48 h
# Experimental: as §1, §2, §3, §4, §5, §6
# Meloidogyne incognita = assay: Nematicidal (insecticidal) mortality assay on second instar larvae in well plate; settings: for mortality at 12.5 µg/mL: 12.5 μg/ml; for mortality at 12.5 µg/mL / mortality at 25 µg/mL / mortality at 50 µg/mL / mortality at 100 µg/mL / mortality at 200 µg/mL / mortality at 400 µg/mL: 25° C, read-out: Corrected mortality (%); for mortality at 25 µg/mL: 25 μg/ml; for mortality at 50 µg/mL: 50 μg/ml; for mortality at 100 µg/mL: 100 μg/ml; for mortality at 200 µg/mL: 200 μg/ml; for mortality at 400 µg/mL: 400 μg/ml; for LC50: calculated with SPSS 26.0
# Experimental: as §1
# The infected tomato roots with Meloidogyne incognita were washed with water, and the oocysts of Meloidogyne incognita were picked by a dissecting needle and placed in 0.4 M KCl solution. The oocysts were washed and disinfected in a 5 ml centrifuge tube with 4 ml sterile water (three times), 1 ml sterile penicillin-streptomycin double antibody solution and 3 ml 0.1% NaClO solution, and the supernatant was removed in each step by short centrifugation (8000 rpm for 30 seconds). The washed eggs were incubated in 0.4 M ZnCl2 solution for 48 h, and the second instar larvae were collected in a 1.5 ml centrifuge tube with a pipette and enriched by short centrifugation (5000 rpm for 30 seconds) for subsequent use.
# as §3, with “Subsequently, the nematodes were examined under an optical microscope at 12 h, 24 h and 48 h, respectively, to calculate the mortality.” left out
# as §4, §5, §6
smiles,measurement,setting,value
O=Cc1ccc[nH]1 [pyrrole-2-carboxaldehyde],LC50,Meloidogyne hapla,31.6 µg/mL
same,LC50,Meloidogyne javanica,33.6 µg/mL
same,LC50,Meloidogyne arenaria,31 µg/mL
same,mortality at 12.5 µg/mL,Meloidogyne incognita; 12 h,6.99 ± 1.99%
same,mortality at 12.5 µg/mL,Meloidogyne incognita; 24 h,16.6 ± 3.58%
same,mortality at 12.5 µg/mL,Meloidogyne incognita; 36 h,24.9 ± 4.7%
same,mortality at 12.5 µg/mL,Meloidogyne incognita; 48 h,30.3 ± 4.57%
same,mortality at 12.5 µg/mL,Meloidogyne incognita; 72 h,36.1 ± 5.08%
same,mortality at 25 µg/mL,Meloidogyne incognita; 12 h,15.8 ± 0.29%
same,mortality at 25 µg/mL,Meloidogyne incognita; 24 h,26.5 ± 0.53%
same,mortality at 25 µg/mL,Meloidogyne incognita; 36 h,36.3 ± 0.95%
same,mortality at 25 µg/mL,Meloidogyne incognita; 48 h,42.1 ± 1.51%
same,mortality at 25 µg/mL,Meloidogyne incognita; 72 h,48.5 ± 0.78%
same,mortality at 50 µg/mL,Meloidogyne incognita; 12 h,22.4 ± 0.43%
same,mortality at 50 µg/mL,Meloidogyne incognita; 24 h,36.63 ± 0.19%
same,mortality at 50 µg/mL,Meloidogyne incognita; 36 h,53.4 ± 3.16%
same,mortality at 50 µg/mL,Meloidogyne incognita; 48 h,56.6 ± 0.63%
same,mortality at 50 µg/mL,Meloidogyne incognita; 72 h,63.2 ± 0.99%
same,mortality at 100 µg/mL,Meloidogyne incognita; 12 h,24.3 ± 2.78%
same,mortality at 100 µg/mL,Meloidogyne incognita; 24 h,38.7 ± 2%
same,mortality at 100 µg/mL,Meloidogyne incognita; 36 h,62 ± 0.85%
same,mortality at 100 µg/mL,Meloidogyne incognita; 48 h,83.2 ± 1.29%
same,mortality at 100 µg/mL,Meloidogyne incognita; 72 h,88.27 ± 0.56%
same,mortality at 200 µg/mL,Meloidogyne incognita; 12 h,34.2 ± 1.74%
same,mortality at 200 µg/mL,Meloidogyne incognita; 24 h,64.3 ± 0.9%
same,mortality at 200 µg/mL,Meloidogyne incognita; 36 h,79.29 ± 0.7%
same,mortality at 200 µg/mL,Meloidogyne incognita; 48 h,93.3 ± 2.24%
same,mortality at 200 µg/mL,Meloidogyne incognita; 72 h,94.5 ± 1.89%
same,mortality at 400 µg/mL,Meloidogyne incognita; 12 h,47.5 ± 4.35%
same,mortality at 400 µg/mL,Meloidogyne incognita; 24 h,77.42 ± 0.58%
same,mortality at 400 µg/mL,Meloidogyne incognita; 36 h,93.2 ± 0.82%
same,mortality at 400 µg/mL,Meloidogyne incognita; 48 h,98.01 ± 0.2%
same,mortality at 400 µg/mL,Meloidogyne incognita; 72 h,99.26 ± 0.34%
same,LC50,Meloidogyne incognita; 24 h,84.7 µg/mL
same,LC50,Meloidogyne incognita; 48 h,30.7 µg/mL
